Columns and labels:
Set-up in all cases: key: Active: Compounds with an IC50 value less than 30 μM were deemed to be active.; Not Active: Compounds with an IC50 value less than 30 μM were deemed to be active
[1] = biological target: T1, Brd4 bromodomain 1 (BRD4(1)) (Homo sapiens, UniProt O60885); experiment: Inhibition of tetra-acetylated histone H4 binding to Brd4 bromodomain 1 (TR-FRET); conditions: tetra-acetylated histone H4 peptide, active = IC50 <30 μM
T1 construct: Illustrative results with the first bromodomain of Brd4; made in house; host or cells: E. coli BL21 (DE3)
Method in brief: (§1)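 N-terminally His-tagged bromodomains (200 nM), expressed in E. coli, were incubated with biotinylated tetra-acetylated histone H4 peptide (25-50 nM), Eu-cryptate streptavidin and XL665 anti-His antibody in HEPES pH 7.4 buffer with KF, 0.2% DMSO, 2 h at room temperature. Inhibition read as decreased 665/620 nm TR-FRET; IC50 from dose-response curves.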

[2] = biological target: T2, second bromodomain of Brd2 (BRD2(2)) (Homo sapiens, UniProt P25440); experiment: Inhibition of tetra-acetylated histone H4 binding to Brd2 bromodomain 2 (TR-FRET); conditions: tetra-acetylated histone H4 peptide, active = IC50 <30 μM
T2 construct: made in house; host or cells: E. coli BL21 (DE3)
Method in brief: as §1

c-myc = experiment: Inhibition of c-myc expression in MV4-11 cells (mRNA, real-time PCR); format: cell-based; conditions: Human AML MV4-11 cells, 3 h incubation
Method in brief: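 MV4-11 cells (2.5×10^4) treated with compound or 0.1% DMSO for 3 h at 37 °C. c-myc mRNA measured by RT real-time PCR duplexed with cyclophilin. IC50 from dose–response curve.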

[3] = tested on: human AML MV-4-11 (CRL-9591) cells; experiment: Inhibition of cell proliferation in MV4-11 cells; format: cell-based; conditions: human AML MV-4-11 cells, 72 h; active = IC50 <30 μM
Method in brief: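 Exponentially growing MV-4-11 cells (5×10^4/well) were treated immediately with two-fold dilutions of compound from 30 μM to 0.2 μM, in triplicate, for 72 h at 37° C, 5% CO2. Viability was measured by MTS absorbance at 490 nm after 3–4 h. Proliferation relative to DMSO after blank correction gave IC50.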

hIL-6 mRNA = experiment: Inhibition of hIL-6 mRNA transcription in U937 cells; format: cell-based, human; conditions: LPS stimulation, active = IC50 <30 μM
Method in brief: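 U937 cells differentiated 3 days with 60 ng/mL PMA, pretreated 1 h with compound, then stimulated with 1 ug/mL E. coli LPS for 3 h at 37° C. hIL-6 mRNA quantified by one-step qRT-PCR, Ct normalized to internal control, expressed as fold induction relative to control.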

T2 sequence (P25440 344-453 limits assumed): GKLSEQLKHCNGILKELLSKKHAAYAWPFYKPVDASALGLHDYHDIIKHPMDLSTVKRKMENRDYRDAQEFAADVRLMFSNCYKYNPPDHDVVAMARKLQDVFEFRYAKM

Row | SMILES | FRET activity (IC50 <30 μM) BRD4(1) [1] | FRET activity (IC50 <30 μM) BRD2(2) [2] | c-myc activity (IC50 <30 μM) (c-myc) | Cell Proliferation activity (IC50 <30 μM) [3] | IL-6 activity (IC50 <30 μM) (hIL-6 mRNA)
1 | Cc1cccc(Cn2cc(-c3c(C)noc3C)ccc2=O)c1 [Example 122, 5-(3,5-Dimethylisoxazol-4-yl)-1-(3-methylbenzyl)pyridin-2(1H)-one] | Active | Active | Active | Active | Active
2 | Cc1noc(C)c1-c1ccc(=O)n(Cc2ccccc2Cl)c1 [Example 127, 1-(2-Chlorobenzyl)-5-(3,5-dimethylisoxazol-4-yl)pyridin-2(1H)-one] | Active | Active | Active | Active | Active
3 | Cc1noc(C)c1-c1ccc(=O)n(Cc2c(F)cccc2Cl)n1 [Example 96, 2-(2-Chloro-6-fluorobenzyl)-6-(3,5-dimethylisoxazol-4-yl)pyridazin-3(2H)-one] | Active | Active | Active | Active | Active
4 | Cc1noc(C)c1-c1ccc(=O)n(Cc2ccsc2)n1 [Example 107, 6-(3,5-Dimethylisoxazol-4-yl)-2-(thiophen-3-ylmethyl)pyridazin-3(2H)-one] | Active | Active | Not Active | Active | Active
5 | Cc1noc(C)c1-c1ccc(=O)n(Cc2ccccc2C(F)(F)F)c1 [Example 123, 5-(3,5-Dimethylisoxazol-4-yl)-1-(2-(trifluoromethyl)benzyl)pyridin-2(1H)-one] | Active | Active | Active | Active | Active
6 | Cc1cccc(Cn2nc(-c3c(C)noc3C)ccc2=O)c1 [Example 30, 6-(3,5-Dimethylisoxazol-4-yl)-2-(3-methylbenzyl)pyridazin-3(2H)-one] | Active | Active | Not Active | Active | Active
7 | COc1ccc(Nc2ccc(=O)n(Cc3ccccc3)c2)cc1OC [Example 65, 1-Benzyl-5-((3,4-dimethoxyphenyl)amino)pyridin-2(1H)-one] | Active | Active | Active | Active | Active
8 | Cc1noc(C)c1-c1cc(C)c(=O)n(Cc2ccccc2)n1 [Example 21, 2-Benzyl-6-(3,5-dimethylisoxazol-4-yl)-4-methylpyridazin-3(2H)-one] | Active | Active | Active | Not Active | Active
9 | COc1cccc(Cn2cc(-c3c(C)noc3C)ccc2=O)c1 [Example 78, 5-(3,5-Dimethylisoxazol-4-yl)-1-(3-methoxybenzyl)pyridin-2(1H)-one] | Active | Active | Active | Active | Active
10 | Cc1noc(C)c1-c1ccc(=O)n(C(C)c2ccccc2F)n1 (stereo not drawn) [Example 95, 6-(3,5-Dimethylisoxazol-4-yl)-2-(1-(2-fluorophenyl)ethyl)pyridazin-3(2H)-one] | Active | Active | Not Active | Not Active | Active
11 | Cc1ccc(Cn2nc(-c3c(C)noc3C)ccc2=O)cc1 [Example 29, 6-(3,5-Dimethylisoxazol-4-yl)-2-(4-methylbenzyl)pyridazin-3(2H)-one] | Active | Active | Active | Active | Active
12 | Cc1noc(N)c1-c1ccc(=O)n(Cc2ccccc2)c1 [Example 98, 5-(5-Amino-3-methylisoxazol-4-yl)-1-benzylpyridin-2(1H)-one trifluoroacetic acid] | Active | Active | Not Active | Active | Active
13 | Cc1noc(C)c1-c1ccc(=O)n(Cc2ccc(Cl)cc2Cl)c1 [Example 136, 1-(2,4-Dichlorobenzyl)-5-(3,5-dimethylisoxazol-4-yl)pyridin-2(1H)-one] | Active | Active | Active | Active | Active
14 | Cc1noc(C)c1-c1ccc(=O)n(Cc2ccc(C#N)cc2)c1 [Example 137, 4-((5-(3,5-Dimethylisoxazol-4-yl)-2-oxopyridin-1(2H)-yl)methyl)benzonitrile] | Active | Active | Active | Active | Active
15 | Cc1noc(C)c1-c1ccc(=O)n(C(C)c2ccc(F)cc2)c1 (stereo not drawn) [Example 101, 5-(3,5-Dimethylisoxazol-4-yl)-1-(1-(4-fluorophenyl)ethyl)pyridin-2(1H)-one] | Active | Active | Active | Active | Active
16 | Cc1noc(C)c1-c1ccc(=O)n(Cc2ccc(C(F)(F)F)cc2)n1 [Example 91, 6-(3,5-Dimethylisoxazol-4-yl)-2-(4-(trifluoromethyl)benzyl)pyridazin-3(2H)-one] | Active | Active | Not Active | Active | Not Active
17 | Cc1noc(C)c1-c1cc(-c2ccc(F)cc2)c(=O)n(Cc2ccccc2)c1 [Example 70, 1-Benzyl-5-(3,5-dimethylisoxazol-4-yl)-3-(4-fluorophenyl)pyridin-2(1H)-one] | Active | Active | Active | Active | Active
18 | Cc1noc(C)c1-c1ccc(=O)n(C(C)c2ccccc2C(F)(F)F)n1 (stereo not drawn) [Example 34, 6-(3,5-Dimethylisoxazol-4-yl)-2-(1-(2-(trifluoromethyl)phenyl)ethyl)pyridazin-3(2H)-one] | Active | Active | Active | Active | Active

— patent US9271978B2 (Zenith Epigenetics Corp., priority 2012, dated 2016)
